Measured values: patent US20260373176A1, “Compounds Targeting KRAS G12D Mutations and Their Uses” (InnoPharmaScreen Inc., priority 2023, published 2026)
“Also recorded” adds a separate entry of the source.

Columns and labels:
KRAS = conditions: PROTAC recruiting CRBN; cited from earlier work
CRBN-KRAS G12D = target: T1, CRBN-KRAS G12D (Homo sapiens, UniProt P01116+Q96SW2, G12D); assay: SPR ternary complex formation assay of CRBN-KRAS G12D-MG (1:1 Langmuir binding model)
T1 construct: His-tag (for the complex); purchased Abcam (KRAS G12D); R&D systems (CUL4A/RBX1/DDB1/CRBN complex) ab268712; E3-650
Method: (§1) CaCo-2 (ATTC), H1975 (CRL-5908) and LS-180 (CCL-187) cells were obtained from ATCC, expanded immediately, and frozen down. Vials were thawed and used within 20 passages. SNU-407, SNU-1033 and SK-LU-1 cells were obtained from Korean Cell Line Bank, expanded immediately, and frozen down. Vials were thawed and used within 20 passages. Caco-2 cells were cultured in MEM (Welgene, LM007-07) supplemented with 10% FBS GenDEPOT; cat. no. F0900-050) and 1% Antibiotic Antimycotic solution (Welgene; cat. No. LS203-01). H1975, SNU-407, SNU-1033 cells were cultured in RPMI (Welgene, LM011-03) supplemented with 10% FBS GenDEPOT; cat. no. F0900-050) and 1% Antibiotic Antimycotic solution (Welgene; cat. No. LS203-01). SK-LU-1 and LS-180 cells were cultured in DMEM (Welgene, LM001-05) supplemented with 10% FBS GenDEPOT; cat. no. F0900-050) and 1% Antibiotic Antimycotic solution (Welgene; cat. No. LS203-01). PBS (Welgene; cat. no. LB004-02) was used to wash cells and 0.25% Trypsin-EDTA (Welgene; cat. no. LS015-01) was used to detach cells for passaging. KRAS Mouse Monoclonal Antibody was purchased from Origene (cat. no. TA801672), anti-3-actin was purchased from AB Frontier (cat. no. LF-MA20055). […]
The injection was performed at a flow rate and for a contact time according to the Korea University Stem cell Lab guidelines. […] The sensorgrams were recorded using the embedded software imSPR-mini v 1.1.0. […]

KRAS WT = target: T2, KRAS WT (Homo sapiens, UniProt P01116+Q96SW2); assay: Western blot analysis of KRAS WT degradation in Caco-2 cells; assay type: cell-based
T2 construct: molecular glue degradation via endogenous CRBN, western blot
Method: as §1, with “LS203-01).” for “LS203-01). PBS (Welgene; cat. no. LB004-02) was used to wash cells and 0.25% Trypsin-EDTA (Welgene; cat. no. LS015-01) was used to detach cells for passaging. KRAS Mouse Monoclonal Antibody was purchased from Origene (cat. no. TA801672), anti-3-actin was purchased from AB Frontier (cat. no. LF-MA20055).”
2.0×10^5 cells were seeded into 6-well plates (SPL; cat. no. 30006). […] Protein concentration of the supernatant was measured using a BCA reagent. […] Detection of bound antibodies was carried out using ECL reagents (KwikQuant #R1004) and bands were detected by ATTO Luminograph III Lite. The intensity of the KRAS band was quantified using ImageJ software and normalized to the intensity of GAPDH band.

[1] = system: AsPC-1 pancreatic cancer cells; assay: In vivo tumor growth, AsPC-1 xenograft mice; set-up: species or system mouse (BALB/c nu/nu nude mice)
Method: We have conducted the in vivo tumor growth assay using AsPC-1 pancreatic cancer cell-implanted xenograft animals by requesting Eins solution (Gwanggyo, Korea).
Experimental procedures that involved animals and their care were conducted in compliance with the Guide for the Care and Use of Laboratory Animals15 and ARRIVE guidelines. Animal experiments were approved by Animal Care and Use Committee of Woojung center for phenogenomics (Hwasung, Korea) and conducted at WoojungBio Inc. (Hwasung, Korea) in accordance with the guidelines. BA LB/C (nu/nu) nude mice of both genders aged 6 weeks and weighing 16-22 g were purchased from Nara biotech Co, Ltd. (Seoul, Korea). The mice were housed in a pathogen-free environment at a temperature of 25 °C and relative air humidity between 45 and 50%. All surgeries were performed in a sterile environment. To establish subcutaneous […] tumors, 1×10^6 AsPC-1 cells/100 μL were subcutaneously injected into the left groin region of BALB/nu nu male mice (7 weeks old; Nara Biotech Inc., Seoul, Korea). Immediately before treatment, IPS-06061 was dissolved in DMSO and then diluted tenfold in normal saline. Tumor-baring mice in vehicle control, IPS-06061 (low), and IPS-06061 (high) groups were injected intravenously with vehicle (1:10 DMSO to saline, v/v), 30 mg/kg IPS-06061 solution, or 80 mg/kg IPS-06061 solution, respectively, twice a week for 28 days (n=10 mice per major group) (FIG. 11). Tumor growth rate was recorded on day 7, 14, 21, and 28 by measuring the major and minor axes with a digital caliper. Measurements were transformed into tumor volumes using the formula tumor volume (mm^3)=major axis×minor axis^2×0.5. Tumor, liver, and kidneys were collected from major groups on day 28 within 3 h of the last injection and weighed. The tumors were subsequently frozen in liquid nitrogen and stored at −80 °C until homogenization for western blotting.
To confirm the anti-tumor effect of IPS-06061, we employed a xenograft mouse model implanting AsPC-1 pancreatic cancer cells. After the tumor volume had grown to approximately 100 mm^3, IPS-06061 was administered […] twice a week for 28 days. […] Toxicity was assessed by measuring body weight, food intake, complete blood cell count, and biochemical blood chemistry.

KRAS G12D [2] = assay: KRAS G12D degradation in AsPC-1 xenograft mice; assay type: in vivo, mouse (BALB/c nu/nu nude mice); conditions: 80 mpk BiW, oral; at 28 days after treatment
[3] = Toxicity in AsPC-1 xenograft mice (body weight, food intake, blood count, blood chemistry); assay type: in vivo, mouse (BALB/c nu/nu nude mice)
Method: Experimental procedures that involved animals and their care were conducted in compliance with the Guide for the Care and Use of Laboratory Animals15 and ARRIVE guidelines. Animal experiments were approved by Animal Care and Use Committee of Woojung center for phenogenomics (Hwasung, Korea) and conducted at WoojungBio Inc. (Hwasung, Korea) in accordance with the guidelines. BA LB/C (nu/nu) nude mice of both genders aged 6 weeks and weighing 16-22 g were purchased from Nara biotech Co, Ltd. (Seoul, Korea). The mice were housed in a pathogen-free environment at a temperature of 25 °C and relative air humidity between 45 and 50%. All surgeries were performed in a sterile environment. To establish subcutaneous […] tumors, 1×10^6 AsPC-1 cells/100 μL were subcutaneously injected into the left groin region of BALB/nu nu male mice (7 weeks old; Nara Biotech Inc., Seoul, Korea). Immediately before treatment, IPS-06061 was dissolved in DMSO and then diluted tenfold in normal saline. […] Tumor growth rate was recorded on day 7, 14, 21, and 28 by measuring the major and minor axes with a digital caliper. […]
To confirm the anti-tumor effect of IPS-06061, we employed a xenograft mouse model implanting AsPC-1 pancreatic cancer cells. […] Toxicity was assessed by measuring body weight, food intake, complete blood cell count, and biochemical blood chemistry.

KRAS G12D [4] = target: T3, KRAS G12D (Homo sapiens, UniProt P01116+Q96SW2, G12D); assay: Western blot analysis of KRAS G12D degradation in cells; assay type: cell-based; set-up: degradation by molecular glue via endogenous CRBN, western blot
Method: 2.0×10^5 cells were seeded into 6-well plates (SPL; cat. no. 30006). The next day, media was removed, and cells were treated with 0, 1, 5, 10, 50, 100 μM KRAS-MG in serum free media. For 24 h, 48 h, and 72 h. Cells were lysed using a RIPA buffer and clarified at 21,000×g for 15 min at 4 °C. Protein concentration of the supernatant was measured using a BCA reagent. (Thermofisher; cat. no. 23225) incubated at 37 °C for 30 mins. For each sample, equal amounts of protein were denatured and fractionated by Novex Wedge Well 4-20% Tris-Glycine Mini Gels (Invitrogen cat. no. XP04205BOX), and then transferred onto a Immobilon-PVDF Membrane membranes (Merck, cat. no. IPVH00010) at 80 V for 1 h at 4 °C. Membranes were blocked by placing them in a 5% BSA in Tris-buffered saline with Tween-20 (TBST; 20 mM Tris, 150 mM NaCl, 0.1% Tween-20) for 1 h. Membranes were then incubated overnight at 4 °C with primary antibodies against KRAS (1:1000, invitrogen: #703345), GAPDH (1:2000, Cell signaling #2118). After three washes with TBST, membranes were incubated with the appropriate HRP-conjugated secondary antibodies (1:1000, KwikQuant #R1006) for 1 hour RT. After three washing. Detection of bound antibodies was carried out using ECL reagents (KwikQuant #R1004) and bands were detected by ATTO Luminograph III Lite. The intensity of the KRAS band was quantified using ImageJ software and normalized to the intensity of GAPDH band.

KRAS G12D [5] = target: T3, KRAS G12D; assay: IPS-Chip PPIExplorer solid-phase cell-free ubiquitination of KRAS G12D using CRBN; assay type: biochemical; set-up: His-tagged CUL4A/RBX1/DDB1/CRBN E3; UBE1 (E1) and UbcH5a/UBE2D1 (E2) as helper enzymes; conditions: in the presence of CRBN, E1, E2, ubiquitin and ATP
Method: as §1, with “passaging.” for “passaging. KRAS Mouse Monoclonal Antibody was purchased from Origene (cat. no. TA801672), anti-3-actin was purchased from AB Frontier (cat. no. LF-MA20055).”
The 0.2 mg/ml 6× His tag monoclonal antibody was diluted in 30% glycerol in 1×PBS, pH 7.4, was spotted onto the IPS-Chip for 16 h at 4 °C. […] To detect polyubiquitination signals, the chip was scanned using a GenePix Pro 6.0 (Axon Instruments, CA, USA), and the data analyzed with an Origin 6.1 (Originlab, MA, USA).

Row | SMILES | poly-ubiquitination and degradation of KRAS (KRAS) | ternary complex formation / binding to KRAS G12D (CRBN-KRAS G12D; CRBN + KRAS G12D) | selectivity for KRAS G12D over KRAS WT (CRBN-KRAS G12D; KRAS G12D vs KRAS WT) | effect on degradation of KRAS WT (KRAS WT) | TGI ([1]; 80 mpk BiW, oral, AsPC-1 xenograft mice) | anti-cancer activity ([1]; AsPC-1 xenograft mice) | mean tumor growth vs vehicle ([1]; high dose 80 mpk, oral, twice a week for 28 days) | tumor weight ([1]; oral, twice a week for 28 days) | Maximum degradation (KRAS G12D [2]) [%] | body weight effect ([3]; AsPC-1 xenograft mice, twice a week, 28 days) | decreases in weight and food intake ([3]; oral, twice a week for 28 days, vs vehicle group) | Dmax (KRAS G12D [4]; ASPC1, KRAS G12D degradation, AsPC-1 cells) [%] | DC50 (KRAS G12D [4]; KRAS G12D degradation, AsPC-1 cells) [µM] | degradation of KRAS G12D (KRAS G12D [4]; western blot, AsPC-1 pancreatic cancer cells) | ubiquitination of KRAS G12D (KRAS G12D [5])
1 | C=C(F)C(=O)N1CCN(c2nc(OC[C@@H]3CCCN3CCCOCCC(=O)N[C@H](C(=O)N3C[C@H](O)C[C@H]3C(=O)NCc3ccc(-c4scnc4C)cc3)C(C)(C)C)nc3c2CCN(c2cccc4cccc(Cl)c24)C3)C[C@@H]1CC#N [LC2] | poly-ubiquitination of KRAS, thus proteosome-mediated degradation of the protein | – | – | – | – | – | – | – | – | – | – | – | – | – | –
2 | CCOC(=O)[C@H](CCc1ccccc1)N[C@@H](C)C(=O)c1ccccc1 [IPS-06061, ethyl (2S)-2-((1-oxo-1-phenylpropan-2-yl)amino)-4-phenylbutanoate] | – | binds specifically to KRAS G12D, forming a ternary complex | High selective for KRAS G12D | no effect on the degradation of KRAS WT; also recorded: without affecting KRAS Wild Type | ~ 100% | strong anti-cancer activity | remarkably reduced | significantly reduced tumor weight | > 75 | No body weight effect | such differences were not noted | > 90 | < 0.5 | Time-dependent degradation of KRAS G12D; also recorded: degrades KRAS G12D mutant | promoted the ubiquitination of KRAS G12D in a dose-dependent manner
